{"source": "ChEMBL document CHEMBL4665653", "about": "“VU6005806/AZN-00016130, an advanced M positive allosteric modulator (PAM) profiled as a potential preclinical development candidate” (Bioorg Med Chem Lett, 2019)", "key": {"[1]": {"molecular_target": "5-hydroxytryptamine receptor 2B (Homo sapiens) (UniProt P41595)", "sequence (P41595 whole entry)": "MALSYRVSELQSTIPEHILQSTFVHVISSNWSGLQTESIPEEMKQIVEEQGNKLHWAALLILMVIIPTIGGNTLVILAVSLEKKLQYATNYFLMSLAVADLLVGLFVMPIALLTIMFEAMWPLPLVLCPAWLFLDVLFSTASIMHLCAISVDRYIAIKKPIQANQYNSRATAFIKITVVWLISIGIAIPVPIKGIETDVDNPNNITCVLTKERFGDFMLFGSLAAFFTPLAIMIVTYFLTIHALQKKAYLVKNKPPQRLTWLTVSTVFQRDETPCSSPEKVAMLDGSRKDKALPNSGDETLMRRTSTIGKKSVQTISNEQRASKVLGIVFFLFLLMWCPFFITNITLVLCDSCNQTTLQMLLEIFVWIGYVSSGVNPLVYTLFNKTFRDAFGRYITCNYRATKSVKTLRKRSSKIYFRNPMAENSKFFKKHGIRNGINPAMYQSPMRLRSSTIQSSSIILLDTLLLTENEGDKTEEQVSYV", "assay": "Displacement of [3H]-LSD from recombinant full length human 5HT2B receptor expressed in CHO-K1 cells assessed as residual binding level for radioligand at 10 uM incubated for 60 mins by", "assay_type": "cell-based"}, "[2]": {"assay": "Volume of distribution at steady state in rat", "assay_type": "ADME", "conditions": "in vivo, read-out: Vdss"}, "[3]": {"molecular_target": "Muscarinic acetylcholine receptor M3 (Rattus norvegicus, UniProt P08483)", "sequence (P08483 whole entry)": "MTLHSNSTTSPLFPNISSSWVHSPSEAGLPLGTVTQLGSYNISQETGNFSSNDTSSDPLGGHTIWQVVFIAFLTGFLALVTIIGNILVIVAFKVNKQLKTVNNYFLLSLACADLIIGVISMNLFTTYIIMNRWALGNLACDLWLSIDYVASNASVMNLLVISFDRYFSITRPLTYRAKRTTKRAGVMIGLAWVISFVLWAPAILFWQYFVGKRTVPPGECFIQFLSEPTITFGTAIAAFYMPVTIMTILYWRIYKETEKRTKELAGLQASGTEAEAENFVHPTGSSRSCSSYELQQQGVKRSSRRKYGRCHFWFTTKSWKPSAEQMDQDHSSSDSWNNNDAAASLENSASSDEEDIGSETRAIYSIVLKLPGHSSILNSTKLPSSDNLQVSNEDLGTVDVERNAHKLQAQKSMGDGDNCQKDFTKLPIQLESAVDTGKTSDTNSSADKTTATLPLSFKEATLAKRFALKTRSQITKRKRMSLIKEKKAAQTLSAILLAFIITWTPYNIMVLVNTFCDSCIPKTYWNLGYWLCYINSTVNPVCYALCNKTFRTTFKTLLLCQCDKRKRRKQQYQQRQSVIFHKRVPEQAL", "assay": "Positive allosteric modulation of rat M3 receptor"}, "[4]": {"assay": "Volume of distribution at steady state in dog", "assay_type": "ADME, Canis lupus familiaris", "conditions": "in vivo, read-out: Vdss"}, "[5]": {"assay": "Solubility of the compound pH 7.5", "assay_type": "physicochemical", "conditions": "buffer"}, "Rattus norvegicus [6]": {"species_on_record": "Rattus norvegicus", "assay": "Displacement of [3H]-Flunitrazepam from Wistar rat brain GABA(A)/BzR site assessed as residual binding level for radioligand at 10 uM measured after 60 mins by scintillation counting method relative to control", "assay_type": "tissue-based"}, "[7]": {"assay": "Solubility of the compound in simulated gastric fluid", "assay_type": "physicochemical"}, "[8]": {"molecular_target": "T1, Muscarinic acetylcholine receptor M4 (Homo sapiens, UniProt P08173)", "T1 sequence (P08173 whole entry)": "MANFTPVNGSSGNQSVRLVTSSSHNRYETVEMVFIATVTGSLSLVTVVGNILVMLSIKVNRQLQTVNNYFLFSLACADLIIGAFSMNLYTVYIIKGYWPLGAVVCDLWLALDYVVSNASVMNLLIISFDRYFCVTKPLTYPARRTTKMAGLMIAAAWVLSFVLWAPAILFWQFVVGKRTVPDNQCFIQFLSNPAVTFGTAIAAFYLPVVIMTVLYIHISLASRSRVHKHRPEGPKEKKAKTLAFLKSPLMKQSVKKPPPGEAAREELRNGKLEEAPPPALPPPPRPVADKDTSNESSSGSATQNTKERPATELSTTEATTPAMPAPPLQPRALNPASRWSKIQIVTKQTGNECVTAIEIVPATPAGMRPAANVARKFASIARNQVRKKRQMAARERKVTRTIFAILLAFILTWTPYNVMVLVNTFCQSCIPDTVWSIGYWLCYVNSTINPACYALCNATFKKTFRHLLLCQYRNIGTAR", "assay": "Positive allosteric modulation of human M4 receptor/Gqi5 in presence of EC20 acetylcholine by calcium mobilization assay", "assay_type": "functional"}, "[9]": {"molecular_target": "Sodium-dependent dopamine transporter (Homo sapiens) (UniProt Q01959)", "sequence (Q01959 whole entry)": "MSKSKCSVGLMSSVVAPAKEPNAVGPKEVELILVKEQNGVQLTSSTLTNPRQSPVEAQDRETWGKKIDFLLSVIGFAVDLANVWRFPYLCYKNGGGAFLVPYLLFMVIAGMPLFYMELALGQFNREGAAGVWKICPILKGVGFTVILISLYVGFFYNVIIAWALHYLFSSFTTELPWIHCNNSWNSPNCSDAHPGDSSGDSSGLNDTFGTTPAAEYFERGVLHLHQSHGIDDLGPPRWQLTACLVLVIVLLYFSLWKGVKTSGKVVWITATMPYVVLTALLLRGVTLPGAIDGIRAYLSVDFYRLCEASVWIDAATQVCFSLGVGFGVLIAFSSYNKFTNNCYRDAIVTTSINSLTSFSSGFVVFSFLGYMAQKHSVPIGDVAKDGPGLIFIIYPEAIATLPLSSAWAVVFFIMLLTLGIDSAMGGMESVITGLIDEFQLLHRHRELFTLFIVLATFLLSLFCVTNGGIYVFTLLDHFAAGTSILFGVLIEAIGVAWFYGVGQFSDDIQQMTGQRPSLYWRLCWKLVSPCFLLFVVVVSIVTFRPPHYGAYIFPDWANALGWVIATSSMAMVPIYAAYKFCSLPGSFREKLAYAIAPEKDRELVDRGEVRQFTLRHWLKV", "assay": "Displacement of [125I]RTI-55 from full length recombinant human dopamine transporter expressed in CHO-S cells assessed as residual binding level for radioligand at 10 uM after 180 mins by radiometric scintillation analysis relative to control", "assay_type": "cell-based"}, "Cytochrome P450 2C9": {"molecular_target": "Cytochrome P450 2C9 (Homo sapiens, UniProt P11712)", "sequence (P11712 whole entry)": "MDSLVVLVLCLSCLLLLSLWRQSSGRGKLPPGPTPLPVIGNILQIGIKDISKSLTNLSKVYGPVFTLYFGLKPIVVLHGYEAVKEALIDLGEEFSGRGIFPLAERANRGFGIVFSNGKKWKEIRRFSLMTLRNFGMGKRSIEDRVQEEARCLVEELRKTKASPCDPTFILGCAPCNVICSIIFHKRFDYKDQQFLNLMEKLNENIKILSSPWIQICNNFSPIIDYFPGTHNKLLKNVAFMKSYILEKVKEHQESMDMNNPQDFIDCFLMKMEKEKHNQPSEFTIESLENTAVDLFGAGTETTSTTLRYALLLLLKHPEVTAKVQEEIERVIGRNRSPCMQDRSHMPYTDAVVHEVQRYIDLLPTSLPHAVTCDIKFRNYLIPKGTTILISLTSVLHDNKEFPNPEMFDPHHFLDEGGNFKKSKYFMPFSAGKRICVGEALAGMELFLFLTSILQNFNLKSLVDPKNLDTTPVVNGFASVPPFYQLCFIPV", "assay": "Inhibition of CYP2C9 (unknown origin)", "assay_type": "ADME"}, "[10]": {"molecular_target": "Sigma non-opioid intracellular receptor 1 (Homo sapiens) (UniProt Q99720)", "sequence (Q99720 whole entry)": "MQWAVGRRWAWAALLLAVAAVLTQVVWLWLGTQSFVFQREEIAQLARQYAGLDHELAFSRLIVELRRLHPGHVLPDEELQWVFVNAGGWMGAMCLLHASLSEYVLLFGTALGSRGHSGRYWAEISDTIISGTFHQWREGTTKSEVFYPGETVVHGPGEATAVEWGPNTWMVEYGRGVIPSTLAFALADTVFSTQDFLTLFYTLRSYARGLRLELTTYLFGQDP", "assay": "Displacement of [3H]-(+)-pentazocine from human sigma-1 receptor in human T lymphocyte Jurkat cell membrane assessed as residual binding level for radioligand at 10 uM incubated for 120 mins by liquid scintillation counting method relative to control", "assay_type": "tissue-based"}, "[11]": {"molecular_target": "T2, Muscarinic acetylcholine receptor M2 (Homo sapiens, UniProt P08172)", "T2 sequence (P08172 whole entry)": "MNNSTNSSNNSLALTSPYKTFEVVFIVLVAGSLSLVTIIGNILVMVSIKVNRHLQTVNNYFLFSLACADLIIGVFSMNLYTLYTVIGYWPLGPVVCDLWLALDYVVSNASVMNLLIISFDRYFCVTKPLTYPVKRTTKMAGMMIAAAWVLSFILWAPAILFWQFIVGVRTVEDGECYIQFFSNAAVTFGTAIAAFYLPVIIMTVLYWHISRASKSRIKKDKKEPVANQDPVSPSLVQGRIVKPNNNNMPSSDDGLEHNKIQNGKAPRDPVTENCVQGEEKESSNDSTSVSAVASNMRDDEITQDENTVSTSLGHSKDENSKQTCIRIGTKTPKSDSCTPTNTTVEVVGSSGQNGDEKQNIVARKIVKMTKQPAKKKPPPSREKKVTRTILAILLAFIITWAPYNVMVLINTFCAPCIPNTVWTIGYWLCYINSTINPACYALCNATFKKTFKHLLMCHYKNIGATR", "assay": "Positive allosteric modulation of human M2 receptor/Gqi5 in presence of EC20 acetylcholine by calcium mobilization assay"}, "Rattus norvegicus [12]": {"species_on_record": "Rattus norvegicus", "assay": "Displacement of [3H]-Rolipram from phosphodiesterases PDE4 receptor rolipram binding site in Wistar rat brain assessed as residual binding level for radioligand at 10 uM incubated for 60 mins", "assay_type": "tissue-based"}, "[13]": {"assay": "Half life in dog", "assay_type": "ADME, Canis lupus familiaris", "conditions": "in vivo"}, "[14]": {"molecular_target": "D(4) dopamine receptor (Homo sapiens) (UniProt P21917)", "sequence (P21917 whole entry)": "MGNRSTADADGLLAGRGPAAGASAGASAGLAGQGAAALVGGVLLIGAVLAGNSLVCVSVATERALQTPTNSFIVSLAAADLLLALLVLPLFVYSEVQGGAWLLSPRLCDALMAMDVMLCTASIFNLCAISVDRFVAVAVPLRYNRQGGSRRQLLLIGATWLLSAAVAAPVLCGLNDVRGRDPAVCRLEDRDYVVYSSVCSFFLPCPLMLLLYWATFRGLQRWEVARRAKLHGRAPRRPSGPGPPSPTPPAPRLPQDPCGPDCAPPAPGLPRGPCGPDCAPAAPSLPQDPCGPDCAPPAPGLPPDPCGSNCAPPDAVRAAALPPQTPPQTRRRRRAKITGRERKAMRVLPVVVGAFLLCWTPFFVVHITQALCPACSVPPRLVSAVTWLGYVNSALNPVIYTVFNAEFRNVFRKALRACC", "assay": "Displacement of [3H]spiperone from full length recombinant human D4.4 receptor expressed in CHO cells assessed as residual binding level for radioligand at 10 uM incubated for 120 mins by radiometric scintillation analysis relative to control", "assay_type": "cell-based"}, "[15]": {"molecular_target": "Histamine H1 receptor (Homo sapiens) (UniProt P35367)", "sequence (P35367 whole entry)": "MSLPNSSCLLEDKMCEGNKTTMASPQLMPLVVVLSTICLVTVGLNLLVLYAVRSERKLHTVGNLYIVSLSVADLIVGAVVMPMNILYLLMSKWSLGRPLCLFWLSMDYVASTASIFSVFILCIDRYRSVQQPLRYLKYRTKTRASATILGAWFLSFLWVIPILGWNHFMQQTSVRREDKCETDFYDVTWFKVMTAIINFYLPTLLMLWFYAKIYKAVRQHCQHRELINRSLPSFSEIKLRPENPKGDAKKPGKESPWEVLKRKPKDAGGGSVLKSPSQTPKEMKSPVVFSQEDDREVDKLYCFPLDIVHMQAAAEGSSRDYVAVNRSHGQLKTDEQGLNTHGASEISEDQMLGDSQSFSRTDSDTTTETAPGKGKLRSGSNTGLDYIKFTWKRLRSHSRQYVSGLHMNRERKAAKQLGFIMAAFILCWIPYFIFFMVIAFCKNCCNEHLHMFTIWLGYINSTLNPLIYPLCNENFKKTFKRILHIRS", "assay": "Displacement of [3H]pyrilamine from full length recombinant human histamine H1 receptor expressed in CHO-K1 cells assessed as residual binding level for radioligand at 10 uM after 180 mins by scintillation counting analysis relative to control", "assay_type": "cell-based"}, "[16]": {"assay": "Fraction unbound in human plasma", "assay_type": "ADME, cell-free"}, "[17]": {"molecular_target": "Muscarinic acetylcholine receptor M2 (Homo sapiens) (UniProt P08172)", "assay": "Displacement of [3H]N-Methylscopolamine from full length human recombinant muscarinic M2 receptor expressed in CHO-K1 cells assessed as residual binding level for radioligand at 10 uM measured after 120 mins by radiometric scintillation analysis relative to control", "assay_type": "cell-based"}, "[18]": {"molecular_target": "Sodium-dependent noradrenaline transporter (Homo sapiens) (UniProt P23975)", "sequence (P23975 whole entry)": "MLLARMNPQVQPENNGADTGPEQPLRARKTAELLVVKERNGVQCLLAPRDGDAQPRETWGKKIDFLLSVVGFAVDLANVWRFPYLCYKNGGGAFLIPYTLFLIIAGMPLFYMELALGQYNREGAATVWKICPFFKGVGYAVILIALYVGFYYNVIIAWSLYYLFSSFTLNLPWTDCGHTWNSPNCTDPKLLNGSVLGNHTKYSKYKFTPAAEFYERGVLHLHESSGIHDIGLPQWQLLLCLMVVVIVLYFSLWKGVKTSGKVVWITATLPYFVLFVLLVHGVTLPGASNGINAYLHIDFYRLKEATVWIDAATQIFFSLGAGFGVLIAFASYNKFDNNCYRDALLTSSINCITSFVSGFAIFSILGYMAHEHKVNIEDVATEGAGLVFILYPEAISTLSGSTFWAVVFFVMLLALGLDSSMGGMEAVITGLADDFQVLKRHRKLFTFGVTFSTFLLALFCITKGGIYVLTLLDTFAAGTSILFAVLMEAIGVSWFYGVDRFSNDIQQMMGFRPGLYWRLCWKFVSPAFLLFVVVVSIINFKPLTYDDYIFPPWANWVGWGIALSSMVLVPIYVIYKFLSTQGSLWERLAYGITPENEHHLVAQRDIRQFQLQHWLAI", "assay": "Displacement of [125I]RTI-55 from full length recombinant human NET expressed in MDCK cells assessed as residual binding level for radioligand at 10 uM after 180 mins by radiometric scintillation analysis relative to control", "assay_type": "cell-based"}, "[19]": {"molecular_target": "Prostaglandin E2 receptor EP4 subtype (Homo sapiens) (UniProt P35408)", "sequence (P35408 whole entry)": "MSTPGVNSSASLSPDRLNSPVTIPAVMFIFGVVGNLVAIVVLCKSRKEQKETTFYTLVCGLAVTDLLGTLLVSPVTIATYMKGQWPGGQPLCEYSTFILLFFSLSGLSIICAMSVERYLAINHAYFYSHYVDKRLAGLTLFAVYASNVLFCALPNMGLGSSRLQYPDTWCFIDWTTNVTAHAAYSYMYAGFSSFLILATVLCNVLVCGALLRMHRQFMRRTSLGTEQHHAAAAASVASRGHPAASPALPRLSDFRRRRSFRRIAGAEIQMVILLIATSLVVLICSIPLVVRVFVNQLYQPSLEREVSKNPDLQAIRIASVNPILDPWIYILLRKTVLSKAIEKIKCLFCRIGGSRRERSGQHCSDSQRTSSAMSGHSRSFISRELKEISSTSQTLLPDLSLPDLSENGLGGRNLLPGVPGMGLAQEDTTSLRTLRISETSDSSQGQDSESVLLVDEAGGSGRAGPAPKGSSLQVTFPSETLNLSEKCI", "assay": "Displacement of [3H]-Prostaglandin E2 from full length recombinant human prostanoid receptor EP4 expressed in Chem-1 cells assessed as residual binding level for radioligand at 10 uM incubated for 120 mins by scintillation counting analysis relative to control", "assay_type": "cell-based"}, "[20]": {"molecular_target": "Beta-1 adrenergic receptor (Homo sapiens) (UniProt P08588)", "sequence (P08588 whole entry, looked up)": "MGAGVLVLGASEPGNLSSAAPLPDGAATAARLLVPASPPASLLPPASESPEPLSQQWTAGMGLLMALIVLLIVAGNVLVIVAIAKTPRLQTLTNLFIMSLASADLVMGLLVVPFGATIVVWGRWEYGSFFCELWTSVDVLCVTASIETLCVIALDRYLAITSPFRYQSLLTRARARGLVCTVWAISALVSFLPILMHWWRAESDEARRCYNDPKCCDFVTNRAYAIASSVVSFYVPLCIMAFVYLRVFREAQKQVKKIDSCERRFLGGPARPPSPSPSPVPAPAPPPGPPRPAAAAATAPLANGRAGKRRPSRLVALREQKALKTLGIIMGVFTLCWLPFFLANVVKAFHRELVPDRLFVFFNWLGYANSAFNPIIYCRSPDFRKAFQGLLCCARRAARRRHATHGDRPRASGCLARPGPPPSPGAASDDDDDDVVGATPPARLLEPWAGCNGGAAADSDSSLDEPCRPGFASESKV", "assay": "Displacement of [125I]Cyanopindolol from recombinant full length human beta1 adrenoceptor expressed in CHO-K1 cells assessed as residual binding level for radioligand at 10 uM after 120 mins by radiometric scintillation analysis relative to control", "assay_type": "cell-based"}, "Rattus norvegicus [21]": {"species_on_record": "Rattus norvegicus", "assay": "Displacement of [3H]-MDL105519 from NMDA glutamate receptor glycine binding site in Wistar rat brain assessed as residual binding level for radioligand at 10 uM incubated for 30 mins by scintillation counting analysis relative to control", "assay_type": "tissue-based"}, "[22]": {"molecular_target": "P2X receptor (Rattus norvegicus) (UniProt P51579+P49653+P51578+Q64663+P47824+P51577+P49654)", "assay": "Displacement of [3H] alpha, beta-Methylene-ATP from P2X receptor in Wistar rat urinary bladder assessed as residual binding level for radioligand at 10 uM incubated for 120 mins by liquid scintillation counting method relative to control", "assay_type": "tissue-based"}, "[23]": {"molecular_target": "Adenosine receptor A2a (Homo sapiens) (UniProt P29274)", "assay": "Displacement of [3H]CGS-21680 from full length recombinant human A2A receptor expressed in HEK293 cells assessed as residual binding level for radioligand at 10 uM measured after 90 mins radiometric scintillation analysis relative to control", "assay_type": "cell-based"}}}
{"smiles": "COc1nnc2sc(C(=O)NC3CN(c4ncc(C(F)(F)F)cn4)C3)c(N)c2c1C", "values": [{"measurement": "Activity", "setting": "[1]", "value": "> 50", "unit": "%"}, {"measurement": "Vd", "setting": "[2]", "value": 1.81, "unit": "L/kg"}, {"measurement": "EC50", "setting": "[3]", "value": "> 30", "unit": "µM"}, {"measurement": "Vd", "setting": "[4]", "value": 0.57, "unit": "L/kg"}, {"measurement": "solubility", "setting": "[5]", "value": 2.9, "unit": "µM"}, {"measurement": "Activity", "setting": "Rattus norvegicus [6]", "value": "> 50", "unit": "%"}, {"measurement": "solubility", "setting": "[7]", "value": 15, "unit": "µM"}, {"measurement": "EC50", "setting": "[8]", "value": 0.09, "unit": "µM"}, {"measurement": "Activity", "setting": "[9]", "value": "> 50", "unit": "%"}, {"measurement": "IC50", "setting": "Cytochrome P450 2C9", "value": "> 30", "unit": "µM"}, {"measurement": "Activity", "setting": "[10]", "value": "> 50", "unit": "%"}, {"measurement": "EC50", "setting": "[11]", "value": "> 30", "unit": "µM"}, {"measurement": "Activity", "setting": "Rattus norvegicus [12]", "value": "> 50", "unit": "%"}, {"measurement": "half-life", "setting": "[13]", "value": 1, "unit": "h"}, {"measurement": "Activity", "setting": "[14]", "value": "> 50", "unit": "%"}, {"measurement": "Activity", "setting": "[15]", "value": "> 50", "unit": "%"}, {"measurement": "fraction unbound", "setting": "[16]", "value": 0.02}, {"measurement": "Activity", "setting": "[17]", "value": "> 50", "unit": "%"}, {"measurement": "Activity", "setting": "[18]", "value": "> 50", "unit": "%"}, {"measurement": "Activity", "setting": "[19]", "value": "> 50", "unit": "%"}, {"measurement": "Activity", "setting": "[20]", "value": "> 50", "unit": "%"}, {"measurement": "Activity", "setting": "Rattus norvegicus [21]", "value": "> 50", "unit": "%"}, {"measurement": "Activity", "setting": "[22]", "value": "> 50", "unit": "%"}, {"measurement": "Activity", "setting": "[23]", "value": "> 50", "unit": "%"}]}
